Measured values published in publication PMC13095408, “DBeQ derivative targets vacuolar protein sorting 4 functions in cancer cells and suppresses tumor growth in mice” (The Journal of Pharmacology and Experimental Therapeutics, 2025).

What was measured:
[1] = target: T1, recombinant human VCP (Rattus norvegicus, UniProt P46462); experiment: VCP ATPase activity, EnzChek Phosphate assay; format: biochemical
T1 construct: His (N); host or cells: Escherichia coli BL21(DE3)
Protocol: (§1) VPS4B and VCP ATPase activities were measured using the EnzChek Phosphate assay for the quantification of released phosphate. Assay buffers were based on literature precedents ([Cupido et al, 2019], [2021]) as follows: VPS4B buffer (20 mM HEPES-KOH, pH 7.4, 25 mM KOAc, 2 mM MgCl2, 5 mM (NH4)2SO4, 0.5 mM CaCl2, 2.5 mM DTT, 0.1 mg/mL BSA, 0.005% v/v Triton X-100), VCP buffer (20 mM HEPES-NaOH, pH 7.4, 20 mM NaCl, 10 mM MgCl2, 5 mM (NH4)2SO4, 0.5 mM CaCl2, 2.5 mM DTT, 0.1 mg/mL BSA, 0.005% v/v Triton X-100). In black clear-bottom 384-well plates, 22.5 μL of 5% DMSO or 40× test compounds diluted in the respective assay buffer was added to each well. ATPases were diluted to 1 μM in the respective buffers containing 2× EnzChek Phosphate assay coupling reagents of 400 μM MESG and 2 U of PNP, then 25 μL was added to each well. Plates were mixed at 1000 rpm for 30 minutes at RT while being protected from light. The reaction was initiated by adding 2.5 μL of 20 mM MgATP or water followed by mixing at 1200 rpm for 30 seconds at RT. Plates were measured at 360 nm using a CLARIOstar plate reader (BMG LABTECH) for 20 minutes at 37 °C. ATPase activity was calculated as the amount of phosphate released over a 5-minute interval under linear initial velocity conditions. The remaining ATPase activity was calculated by normalizing compound-treated activity values to the DMSO control. IC50 was calculated by fitting normalized values to a sigmoidal dose-response curve with Hill slope = −1 using Graph Pad Prism 10.0.
(§2) To identify VPS4i, we developed enzyme- and cell-based VPS4 functional assays to serve as VPS4i-screening platforms. For the enzyme-based assay, we used the colorimetric EnzChek Phosphate assay that detects free phosphate with the advantage of continuous measurement of ATP hydrolysis over time. […] Due to the high sequence and structural similarity of AAA-ATPases, we also established a VCP ATPase assay to evaluate hit selectivity. […] For the cell-based assay, our approach was based on how VPS4 inhibition causes the accumulation of ESCRT-III ([Babst et al, 1998]; [Katoh et al, 2003]). We used an N-terminal GFP-tagged CHMP4B reporter system because it is the most abundant ESCRT-III subunit ([Katoh et al, 2004]; [Teis et al, 2008]). Our aim was to test compounds under short-term serum and amino acid starvation to stimulate ESCRT activity for easier detection of inhibitors ([Takahashi et al, 2018], [2019]). […] Overall, we established 2 systems for VPS4i screening, a VPS4B ATPase activity assay and a GFP-CHMP4B accumulation cell-based assay.

[2] = target: T2, recombinant human VCP; experiment: VCP ATPase activity, EnzChek Phosphate assay; format: biochemical; conditions: 0.5 μM enzyme
T2 construct: His (N); host or cells: Escherichia coli BL21(DE3)
Protocol: as §1, §2

[3] = system: GFP-CHMP4B-expressing U2OS cells; experiment: GFP-CHMP4B accumulation cell-based assay (high-content microscopy)
In short: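 GFP-CHMP4B U2OS cells were cultured overnight, stained, then treated in SM with compounds (0.1% DMSO or 0.1% DMSO/0.1% ethanol vehicle final). High-content imaging used a 20× NA .70 objective at set intervals, ≥300 cells/well over 3 fields/well.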

[4] = Human liver microsomal stability; format: in vitro ADME; conditions: Human liver microsomes, 1 μM of compound
Protocol: All in vitro absorption, distribution, metabolism, and excretion (ADME) studies were conducted by BioDuro-Sundia. […] Caco-2 permeability, human liver microsomal stability, and human plasma protein binding assays as well as liquid chromatography-mass spectrometry/mass spectrometry analyses were performed following standard protocols previously described in detail ([Kazakova et al, 2023]).

T1 sequence (P46462 2-806 limits assumed): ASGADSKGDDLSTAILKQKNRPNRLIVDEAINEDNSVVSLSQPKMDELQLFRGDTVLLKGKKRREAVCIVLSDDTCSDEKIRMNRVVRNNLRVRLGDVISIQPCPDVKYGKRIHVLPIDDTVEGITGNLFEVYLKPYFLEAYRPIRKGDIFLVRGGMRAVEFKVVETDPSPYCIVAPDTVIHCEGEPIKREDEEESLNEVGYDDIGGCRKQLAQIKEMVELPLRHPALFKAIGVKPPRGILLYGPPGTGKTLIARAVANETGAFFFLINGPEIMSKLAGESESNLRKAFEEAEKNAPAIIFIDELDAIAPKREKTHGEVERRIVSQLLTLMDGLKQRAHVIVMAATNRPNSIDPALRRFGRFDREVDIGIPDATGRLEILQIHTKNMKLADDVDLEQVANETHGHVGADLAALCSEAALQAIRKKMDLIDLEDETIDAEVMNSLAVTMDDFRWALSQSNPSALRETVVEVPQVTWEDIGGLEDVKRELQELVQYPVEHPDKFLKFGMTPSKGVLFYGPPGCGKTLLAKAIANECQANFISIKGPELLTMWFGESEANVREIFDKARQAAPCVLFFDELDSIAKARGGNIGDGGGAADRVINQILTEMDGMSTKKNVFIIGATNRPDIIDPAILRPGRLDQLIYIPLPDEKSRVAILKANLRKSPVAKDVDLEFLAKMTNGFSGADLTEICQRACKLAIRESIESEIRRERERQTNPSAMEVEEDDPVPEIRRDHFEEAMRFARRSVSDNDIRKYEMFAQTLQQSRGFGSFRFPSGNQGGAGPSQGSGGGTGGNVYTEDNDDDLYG
T2 sequence (P46462 2-806 limits assumed): as above

For `COc1cccc2c(NCc3ccccc3)nc(NCc3ccccc3)nc12` [Compound 4-107, N^2,N^4-dibenzyl-8-methoxyquinazoline-2,4-diamine], which “VCP ATPase (% DMSO)” value ([1]; remaining ATPase activity, screened at 5 μM, mean ± SD, Table 2) is on record?
Its value is 68.48 ± 2.85 % DMSO.

And the “VCP ATPase (% DMSO)” value ([1]; screened at 5 µM, mean ± S.D., Supplemental Table 2)?
The value was 68.48 ± 2.02 % DMSO.

And the IC50 [2]?
Its IC50 is 8.6 ± 3.9 µM.

And the “GFP-CHMP4B (% 4-107)” value ([3]; screened at 1 µM, mean ± S.D., Supplemental Table 2)?
The value was 100.00 ± 17.20 % 4-107.

What about the “GFP-CHMP4B (% 4-107)” value ([3]; screened at 1 μM, starvation media, 1 hour, foci intensity per cell normalized to 4-107, mean ± SD, Table 1, listed as 1) of the same compound?
The value was 100.00 ± 17.20 % 4-107.

And the “Liver microsomal stability, remaining after 1 h” value [4]?
The value was 71.83%.

And the microsomal CLint at 1 μM ([4]; read-out: In vitro intrinsic clearance, Clint)?
The microsomal CLint at 1 μM was 11.8 µL/min/mg.

And the half-life at 1 μM ([4]; read-out: Liver microsomal stability, T1/2)?
Its half-life at 1 μM is 1.95 h.
